Measurements taken from patent publication US10220024B2, “Method of inhibiting cancer cell, method for detecting cancer cell, and system for detecting cancer cell” (CANON KABUSHIKI KAISHA, priority 2012, dated 2019).
Where two headings read alike, the source gives them in different places.

What was measured:
[1] = test system: Human pancreas cancer cells, KLM-1; experiment: Cancer cell inhibitory (growth suppressive) action against pancreatic cancer cells, CellTiter-Glo viable cell count; assay type: cell-based; conditions: KLM1, KLM-1, 10 μg/mL, 24 hours
Method: (§1) Observation on cancer cell inhibitory (growth suppressive) action against pancreatic cancer cells Human pancreas cancer cells, KLM-1, were pre-cultured in RPMI1640 medium containing 10% FBS at 37° C. in a 5% CO2 ambient. Thereafter, 4,000 cells were seeded per well of a 96-well plate and further cultured for 24 hours. Subsequently, Compound (1) was added to the medium so as to obtain a final concentration of 10 μg/mL and cultured at 37° C. for 24 hours in a 5% CO2 ambient. The cultured cells were analyzed for viable cell count according to CellTiter-Glo Luminescent Cell Viability Assay (manufactured by Promega KK.). As a reference, the number of cells cultured in a medium containing a 0.1% dimethylsulfoxide solution (hereinafter, simply referred to as DMSO) in place of a medium containing Compound (1), in the aforementioned operation, was regarded (100%).
Viable cell count was analyzed in the same manner as in Experimental Example 1 except that Compound (1) of Experimental Example 1 was changed to compounds shown in Table 2.
Viable cell count was analyzed in the same manner as in Experimental Example 1 except that Compound (1) was changed to comparative compounds 1 to 4.
Viable cell counts of Experimental Examples 1 to 7 and Comparative Examples 1 to 4 were analyzed to obtain growth rates.
Evaluation of cancer cell inhibition against the pancreatic cancer cells (KLM-1) (growth suppression) was made based on the following criteria. Note that the growth rate in Examples herein is a numerical value of the number of cells obtained after culture relative to the number of cells (regarded as 100) grown in a medium containing 0.1% DMSO. Evaluation of cancer cell inhibition against the pancreatic cancer cells (KLM-1) was made as follows. • A: Cancer cell growth rate is less than 20% (cancer cell inhibitory (growth suppressive) effect is extremely high) • B: Cancer cell growth rate is 20% or more and less than 50% (cancer cell inhibitory (growth suppressive) effect is high) • C: Cancer cell growth rate is 50% or more (cancer cell inhibitory (growth suppressive) effect is low)

[2] = Measurement of fluorescent property of compound (spectrofluorometer); assay type: physicochemical; conditions: 5 μM DMSO solution
Method: The excitation wavelength and fluorescence wavelength of the compound were measured by a FL4500 spectrofluorometric measuring machine manufactured by Hitachi High-Technologies Corporation.

[3] = test system: Prostatic cancer cells, PC-3; experiment: Cancer cell inhibitory (growth suppressive) action against prostatic cancer cells, CellTiter-Glo viable cell count; assay type: cell-based; conditions: PC-3, 10 μg/mL, 24 hours
Method: as §1, with “Prostatic” for “Observation on cancer cell inhibitory (growth suppressive) action against pancreatic cancer cells Human pancreas”, “PC-3,” for “KLM-1,”, “(11)” for “(1)”, “(11),” for “(1),”, “used as 100.” for “regarded (100%).”
Viable cell count was analyzed in the same manner as in Experimental Example 8 except that the compounds shown in Table 3 were used in place of Compound (11) of Experimental Example 8.
Viable cell count was analyzed in the same manner as in Experimental Example 8 except that comparative compounds 1 to 4 were used in place of Compound (11) of Experimental Example 8.
The growth rate in Examples herein is a numerical value of the number of cells obtained after culture relative to the number of cells (regarded as 100) grown in a medium containing 0.1% DMSO.
Evaluation of cancer cell inhibition against the prostatic cancer cells (PC-3) was made as follows. • A: Cancer cell growth rate is less than 20% (cancer cell inhibitory (growth suppressive) effect is extremely high) • B: Cancer cell growth rate is 20% or more and less than 50% (cancer cell inhibitory (growth suppressive) effect is high) • C: Cancer cell growth rate is 50% or more (cancer cell inhibitory (growth suppressive) effect is low)

[4] = test system: K562 ALDH (−) fraction (general cancer cells); experiment: Cancer stem-cell selective inhibitory action against chronic myelocytic leukemia cells, ALDH (−) fraction, CellTiter-Glo; assay type: cell-based, Human; conditions: Homo sapiens, 24 hours, relative to 0.1% DMSO, read-out: ALDH(−) (growth rate); for activity at 10 µg/mL: 10 μg/ml; for activity at 1 µg/mL: 1 μg/mL
Method: (§2) Human chronic myelocytic leukemia cells, K562, were pre-cultured in RPMI1640 medium containing 10% FBS at 37° C. in a 5% CO2 ambient. Then, a fraction containing 80% or more of cancer stem cells was extracted by use of ALDEFLUOR reagent (manufactured by VERITAS Corporation) and FACSAria flow cytometry (manufactured by Nippon Becton, Dickinson and Company). Subsequently, Compound (5) was added to the medium so as to obtain a final concentration of 10 μg/mL and cultured at 37° C. for 24 hours in a 5% CO2 ambient. The cultured cells were analyzed for viable cell count according to CellTiter-Glo Luminescent Cell Viability Assay (manufactured by Promega KK.). As a reference, the number of cells cultured in a medium containing a 0.1% dimethylsulfoxide solution (hereinafter, simply referred to as DMSO) in place of a medium containing Compound (1), in the aforementioned operation, was used as 0.1. Note that hereinafter, an ALDEFLUOR reagent positive fraction (deemed as cancer stem cells) is represented by ALDH (+), whereas an ALDEFLUOR reagent negative fraction (not deemed as cancer stem cells) is represented by ALDH (−), in some cases.
(§3) The same operation as in Experimental Example 12 was repeated except that Compound (5) in Experimental Example 12 was changed to the compounds shown in Table 4 and final concentrations shown in Table 4 were used and viable cell counts were separately analyzed. Note that the growth rate in Examples herein is a numerical value of the number of cells obtained after culture relative to the number of cells (regarded as 0.1) grown in a medium containing 0.1% DMSO.
(§4) The same operation as in Experimental Example 12 was repeated except that Compound (5) in Experimental Example 12 was changed to Imatinib (manufactured by NOVARTIS), which is a general anticancer drug, and comparative compounds shown in Table 4 and final concentrations shown in Table 4 were used and viable cell counts were separately analyzed.
(§5) The growth suppressive effect of cancer stem cells was evaluated based on the following criteria. Note that the growth rate in Examples herein is a numerical value relative to the number of cells (regarded as 0.1) grown in a medium containing 0.1% DMSO. • A: The value of ALDH (+) is less than 0.5 (growth suppressive effect against cancer stem cells is extremely high) • B: The value of ALDH (+) is 0.5 or more and less than 0.95 (growth suppressive effect against cancer stem cells is high) • C: The value of ALDH (+) is 0.95 or more (no growth suppressive effect against cancer stem cells)
(§6) Furthermore, superiority of cancer stem cells was evaluated by comparing cancer stem cells to cancer cells based on the following criteria. ALDH (+) represents cancer stem cells; whereas ALDH (−) represents general cancer cells. • A: The value of ALDH (+)/ALDH (−) is less than 0.8 (selective inhibitory effect against cancer stem cells is extremely high) • B: The value of ALDH (+)/ALDH (−) is 0.8 or more and less than 0.95 (selective inhibitory effect against cancer stem cells is high) • C: The value of ALDH (+)/ALDH (−) is 0.95 or more (no selective inhibitory effect against cancer stem cells)

[5] = test system: K562 ALDH (+) fraction (cancer stem cells); experiment: Cancer stem-cell selective inhibitory action against chronic myelocytic leukemia cells, ALDH (+) fraction, CellTiter-Glo; assay type: cell-based; conditions: Homo sapiens, 24 hours; for activity at 10 µg/mL: 10 μg/ml; for activity at 1 µg/mL: 1 μg/mL
Method: as §2, §3, §4, §5, §6

[6] = read-out: Evaluation (cancer cell growth rate)
[7] = relative to 0.1% DMSO (100), read-out: Cancer cell growth rate (%)
[8] = read-out: Growth suppression evaluated
[9] = relative to 0.1% DMSO, read-out: ALDH(+) (growth rate)

Structure (SMILES)	activity at 10 µg/mL [1, 6]	activity at 10 µg/mL [1, 7]	Excitation wavelength λex [2]	Fluorescence wavelength λem [2]	activity at 10 µg/mL [3, 6]	activity at 10 µg/mL [3, 7]	activity at 10 µg/mL [4]	activity at 10 µg/mL [5, 8]	activity at 10 µg/mL [5, 9]	activity at 1 µg/mL [4]	activity at 1 µg/mL [5, 8]	activity at 1 µg/mL [5, 9]
CCC[N+]1=C(/C=C/C=C/c2ccc(N(C)C)cc2)C(C)(C)c2ccccc21 [Compound 26]	< 20%	8.9%	609 nm	692 nm	< 20%	5.8%	–	–	–	–	–	–
CCN1c2ccc(/C=C/C3=[N+](C)c4ccc5ccccc5c4C3(C)C)cc2C2CCCC21 (stereo not shown) [Compound 39]	–	–	591 nm	626 nm	–	–	13%	< 50%	6%	–	–	–
CCn1c2ccccc2c2cc(/C=C/C3=[N+](C)c4ccccc4C3(C)C)ccc21 [Compound 36]	–	–	488 nm	594 nm	–	–	20%	< 50%	13%	–	–	–
CCn1c2ccccc2c2cc(/C=C/C3=[N+](C)c4ccc5ccccc5c4C3(C)C)ccc21 [Compound 40]	–	–	–	–	–	–	13%	< 50%	6%	85%	50 to 95%	73%
CC1(C)C(/C=C/c2ccc3c(c2)C2CCCC2N3c2ccc(C=C(c3ccccc3)c3ccccc3)cc2)=[N+](CCC(=O)O)c2ccccc21 (stereo not shown) [Compound 31]	–	–	611 nm	720 nm	–	–	–	–	–	–	–	–
CCN1c2ccc(/C=C/C3=[N+](CC)c4ccc(OC)cc4C34CCCCC4)cc2C2CCCC21 (stereo not shown) [Compound 8]	20 to 50%	24.3%	586 nm	623 nm	–	–	32%	< 50%	23%	–	–	–
COc1ccc(N2c3ccc(/C=C/C4=[N+](C)c5ccccc5C4(C)C)cc3C3CCCC32)cc1 (stereo not shown) [Compound 38]	–	–	573 nm	670 nm	–	–	11%	< 50%	5%	–	–	–
CCN1C(=O)/C(=c2\s/c(=C/c3ccc4c(c3)c3ccccc3n4CC)c(=O)n2CC(=O)O)SC1=S [compound 1, reference compound]	≥ 50%	99%	–	–	≥ 50%	104%	–	–	–	–	–	–
COc1ccc(N2c3ccc(/C=C/c4sc5ccccc5[n+]4CC(=O)O)cc3C3CCCC32)cc1 (stereo not shown) [Compound 33]	–	–	560 nm	677 nm	–	–	101%	50 to 95%	90%	–	–	–
CCn1c2ccccc2c2cc(/C=C3/SC(=S)N(CC(=O)O)C3=O)ccc21 [compound 4, reference compound]	≥ 50%	100%	–	–	≥ 50%	99.9%	–	–	–	–	–	–
COc1ccc(N2c3ccc(/C=C4/SC(=S)N(CCC(=O)O)C4=O)cc3C3CCCC32)cc1 (stereo not shown) [compound 3, reference compound]	≥ 50%	95%	–	–	≥ 50%	86.5%	–	–	–	–	–	–
O=C(O)Cn1c(=O)/c(=C\c2ccc3c(c2)C2CCCC2N3c2ccccc2)s/c1=C1/SC(=S)N(Cc2ccccc2)C1=O (stereo not shown) [compound 5, reference compound]	–	–	–	–	–	–	90%	≥ 95%	107%	97%	≥ 95%	106%
CCN1c2ccc(/C=C/C3=[N+](C)c4ccccc4C3(C)C)cc2C2CCCC21 (stereo not shown) [Compound 34]	–	–	575 nm	611 nm	–	–	24%	< 50%	17%	–	–	–
COc1ccc(N2c3ccc(/C=C/C4=[N+](CCC(=O)O)c5ccccc5C4(C)C)cc3C3CCCC32)cc1 (stereo not shown) [Compound 32]	–	–	592 nm	671 nm	–	–	90%	50 to 95%	78%	–	–	–
CCOC(=O)Cn1c(=O)/c(=C\c2ccc3c(c2)C2CCCC2N3c2ccccc2)s/c1=C1/SC(=S)N(CC)C1=O (stereo not shown) [compound 2, reference compound]	≥ 50%	91%	–	–	≥ 50%	88.8%	–	–	–	–	–	–
